Key:
[1] = (§1) MBL Inhibitory Activity in Constructed E. coli Cells Expressing MBLs: a. Transfer 50 μl LB with 0.8 mM IPTG (0.4 mM final concentration in assay) to each wellb. Add 1 μl inhibitor/positive control (500/1000 μM final concentration in assay) to selected wellsc. Add 50 μl overnight culture (=1) to each welld. Incubate in plate reader at 37° C. for 20 min with shakinge. Add 5 μl nitrocefin (3.2 mM) to selected wells with a multichannel pipettef. Incubate the plate in the plate reader for 3 hours, measuring nitrocefin hydrolysis at A482 every minute, with shaking in-betweeng. Measure endpoint at A600 to see how inhibitor alone effects bacterial growthh. Centrifuge the plate at 2800 rpm for 10 min, and transfer 50 μl to clean wellsi. Measure A482 endpoint.
[2] = target: Metallo-beta-lactamase type 2 (Bacteria, UniProt C7C422); assay: as §1
Chain of Metallo-beta-lactamase type 2 (C7C422 whole entry): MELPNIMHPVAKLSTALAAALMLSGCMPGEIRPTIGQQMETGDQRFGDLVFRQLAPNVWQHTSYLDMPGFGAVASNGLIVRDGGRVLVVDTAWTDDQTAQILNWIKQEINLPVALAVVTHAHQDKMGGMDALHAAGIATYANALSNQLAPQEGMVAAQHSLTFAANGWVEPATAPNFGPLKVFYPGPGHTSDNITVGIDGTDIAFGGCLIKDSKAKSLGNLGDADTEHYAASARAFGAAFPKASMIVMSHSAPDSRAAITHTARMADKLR

Q: Which results are given for `COc1ccc(Cn2cc(CN(Cc3ccccn3)Cc3ccccn3)nn2)cc1`?
A: IC50 [1]: 2260 nM; IC50 [2]: 380 nM
